# Measurements as given in publication PMC9817970 (Cancers, 2022).
# Assays:
# Assay in all cases: Kinase panel profiling
# Format in all cases: biochemical
# Details in all cases: 10 μM ATP
# JAK1 = target: T1, JAK1 (Homo sapiens, UniProt P23458)
# T1 construct: purchased Reaction Biology Corp
# Method: (§1) Kinase panel profiling was conducted by Reaction Biology Corp. (San Diego, CA, USA). A single dose (1.0 μM) of 6r was tested against 371 recombinant human kinases in the presence of 10 μM ATP.
# PKCb1 = target: T2, PKCb1 (Homo sapiens, UniProt P05771)
# T2 construct: purchased Reaction Biology Corp
# Method: as §1
# EPHA2 = target: T3, EPHA2 (Homo sapiens, UniProt P29317)
# T3 construct: purchased Reaction Biology Corp
# Method: as §1
# KDR/VEGFR2 = target: T4, KDR/VEGFR2 (Homo sapiens, UniProt P35968)
# T4 construct: purchased Reaction Biology Corp
# Method: as §1
# c-Src = target: T5, c-Src (Homo sapiens, UniProt P12931)
# T5 construct: purchased Reaction Biology Corp
# Method: as §1
# MYO3b = target: T6, MYO3b (Homo sapiens, UniProt Q8WXR4)
# T6 construct: purchased Reaction Biology Corp
# T6 sequence (Q8WXR4 whole entry): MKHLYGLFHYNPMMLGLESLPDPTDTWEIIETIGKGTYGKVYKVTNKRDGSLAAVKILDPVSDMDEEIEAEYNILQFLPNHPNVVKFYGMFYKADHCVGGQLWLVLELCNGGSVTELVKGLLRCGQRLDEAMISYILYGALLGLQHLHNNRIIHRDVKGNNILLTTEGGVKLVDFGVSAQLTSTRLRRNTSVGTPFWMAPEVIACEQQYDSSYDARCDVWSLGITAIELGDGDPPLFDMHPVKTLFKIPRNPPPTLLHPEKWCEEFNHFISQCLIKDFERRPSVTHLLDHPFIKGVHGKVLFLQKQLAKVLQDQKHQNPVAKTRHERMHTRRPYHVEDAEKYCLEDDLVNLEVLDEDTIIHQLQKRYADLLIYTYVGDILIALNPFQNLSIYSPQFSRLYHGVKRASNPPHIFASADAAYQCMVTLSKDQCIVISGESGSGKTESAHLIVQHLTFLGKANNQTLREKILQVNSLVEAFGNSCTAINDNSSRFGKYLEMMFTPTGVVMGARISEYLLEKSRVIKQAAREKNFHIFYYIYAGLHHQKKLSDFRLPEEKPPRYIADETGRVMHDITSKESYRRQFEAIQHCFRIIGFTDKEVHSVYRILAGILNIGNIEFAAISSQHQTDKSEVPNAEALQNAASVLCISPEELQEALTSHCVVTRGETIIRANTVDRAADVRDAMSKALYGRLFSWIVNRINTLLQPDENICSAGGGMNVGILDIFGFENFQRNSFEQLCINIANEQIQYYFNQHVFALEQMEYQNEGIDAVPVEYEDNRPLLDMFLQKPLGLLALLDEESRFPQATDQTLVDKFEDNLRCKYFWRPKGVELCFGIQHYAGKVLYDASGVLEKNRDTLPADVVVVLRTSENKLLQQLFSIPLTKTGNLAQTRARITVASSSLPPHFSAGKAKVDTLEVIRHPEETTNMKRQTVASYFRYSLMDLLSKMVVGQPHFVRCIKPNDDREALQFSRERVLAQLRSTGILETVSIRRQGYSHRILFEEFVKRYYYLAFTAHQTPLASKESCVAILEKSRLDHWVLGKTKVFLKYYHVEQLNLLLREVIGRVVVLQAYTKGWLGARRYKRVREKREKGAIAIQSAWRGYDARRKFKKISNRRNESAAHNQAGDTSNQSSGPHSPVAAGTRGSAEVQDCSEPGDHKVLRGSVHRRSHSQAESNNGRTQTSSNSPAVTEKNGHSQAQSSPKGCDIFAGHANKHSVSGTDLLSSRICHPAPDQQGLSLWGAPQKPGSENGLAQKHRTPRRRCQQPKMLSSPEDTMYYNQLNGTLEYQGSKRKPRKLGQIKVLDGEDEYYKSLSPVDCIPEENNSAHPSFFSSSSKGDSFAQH
# Method: as §1
# CAMK4 = target: T7, CAMK4 (Homo sapiens, UniProt Q16566)
# T7 construct: purchased Reaction Biology Corp
# Method: as §1
# CLK3 = target: T8, CLK3 (Homo sapiens, UniProt P49761)
# T8 construct: purchased Reaction Biology Corp
# Method: as §1
# CAMK2g = target: T9, CAMK2g (Homo sapiens, UniProt Q13555)
# T9 construct: purchased Reaction Biology Corp
# Method: as §1
# STK38/NDR1 = target: T10, STK38/NDR1 (Homo sapiens, UniProt Q15208)
# T10 construct: purchased Reaction Biology Corp
# T10 sequence (Q15208 whole entry): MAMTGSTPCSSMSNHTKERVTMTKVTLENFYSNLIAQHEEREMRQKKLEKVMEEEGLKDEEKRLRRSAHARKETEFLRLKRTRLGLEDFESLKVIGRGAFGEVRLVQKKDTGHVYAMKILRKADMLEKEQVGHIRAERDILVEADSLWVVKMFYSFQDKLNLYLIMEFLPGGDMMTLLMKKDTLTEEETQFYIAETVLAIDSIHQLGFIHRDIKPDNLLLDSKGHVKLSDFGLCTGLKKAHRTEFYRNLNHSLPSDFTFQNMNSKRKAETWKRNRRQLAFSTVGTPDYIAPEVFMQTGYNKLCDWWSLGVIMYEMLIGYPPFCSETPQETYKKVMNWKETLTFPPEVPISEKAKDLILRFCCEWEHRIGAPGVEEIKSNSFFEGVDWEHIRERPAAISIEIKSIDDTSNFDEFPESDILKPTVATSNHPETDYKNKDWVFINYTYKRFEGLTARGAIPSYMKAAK
# Method: as §1
# NEK7 = target: T11, NEK7 (Homo sapiens, UniProt Q8TDX7)
# T11 construct: purchased Reaction Biology Corp
# Method: as §1
# CAMK1b = target: T12, CAMK1b (Homo sapiens, UniProt Q6P2M8)
# T12 construct: purchased Reaction Biology Corp
# T12 sequence (Q6P2M8 whole entry): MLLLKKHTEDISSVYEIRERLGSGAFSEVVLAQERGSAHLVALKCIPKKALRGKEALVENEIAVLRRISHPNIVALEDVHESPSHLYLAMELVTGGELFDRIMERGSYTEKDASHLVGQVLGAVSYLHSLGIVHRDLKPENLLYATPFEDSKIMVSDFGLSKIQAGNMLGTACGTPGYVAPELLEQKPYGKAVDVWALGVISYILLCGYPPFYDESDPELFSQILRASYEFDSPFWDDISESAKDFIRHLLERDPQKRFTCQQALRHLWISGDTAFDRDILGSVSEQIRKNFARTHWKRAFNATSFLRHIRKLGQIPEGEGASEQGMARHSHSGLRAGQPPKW
# Method: as §1
# ALK6/BMPR1B = target: T13, ALK6/BMPR1B (Homo sapiens, UniProt O00238)
# T13 construct: purchased Reaction Biology Corp
# Method: as §1
# RSK1 = target: T14, RSK1 (Homo sapiens, UniProt Q15418)
# T14 construct: purchased Reaction Biology Corp
# Method: as §1
# GRK6 = target: T15, GRK6 (Homo sapiens, UniProt P43250)
# T15 construct: purchased Reaction Biology Corp
# Method: as §1
# CAMK1a = target: T16, CAMK1a (Homo sapiens, UniProt Q14012)
# T16 construct: purchased Reaction Biology Corp
# Method: as §1
# TYRO3/SKY = target: T17, TYRO3/SKY (Homo sapiens, UniProt Q06418)
# T17 construct: purchased Reaction Biology Corp
# Method: as §1
# CDK2/CYCLIN E = target: T18, CDK2/CYCLIN E (Homo sapiens, UniProt P24941)
# T18 construct: purchased Reaction Biology Corp
# Method: as §1
# ERK5/MAPK7 = target: T19, ERK5/MAPK7 (Homo sapiens, UniProt Q13164)
# T19 construct: purchased Reaction Biology Corp
# Method: as §1
# PDK1/PDPK1 = target: T20, PDK1/PDPK1 (Homo sapiens, UniProt O15530)
# T20 construct: purchased Reaction Biology Corp
# Method: as §1
# DMPK2 = target: T21, DMPK2 (Homo sapiens, UniProt Q6DT37)
# T21 construct: purchased Reaction Biology Corp
# Method: as §1
# ZIPK/DAPK3 = target: T22, ZIPK/DAPK3 (Homo sapiens, UniProt O43293)
# T22 construct: purchased Reaction Biology Corp
# Method: as §1
# KHS/MAP4K5 = target: T23, KHS/MAP4K5 (Homo sapiens, UniProt Q9Y4K4)
# T23 construct: purchased Reaction Biology Corp
# T23 sequence (Q9Y4K4 whole entry): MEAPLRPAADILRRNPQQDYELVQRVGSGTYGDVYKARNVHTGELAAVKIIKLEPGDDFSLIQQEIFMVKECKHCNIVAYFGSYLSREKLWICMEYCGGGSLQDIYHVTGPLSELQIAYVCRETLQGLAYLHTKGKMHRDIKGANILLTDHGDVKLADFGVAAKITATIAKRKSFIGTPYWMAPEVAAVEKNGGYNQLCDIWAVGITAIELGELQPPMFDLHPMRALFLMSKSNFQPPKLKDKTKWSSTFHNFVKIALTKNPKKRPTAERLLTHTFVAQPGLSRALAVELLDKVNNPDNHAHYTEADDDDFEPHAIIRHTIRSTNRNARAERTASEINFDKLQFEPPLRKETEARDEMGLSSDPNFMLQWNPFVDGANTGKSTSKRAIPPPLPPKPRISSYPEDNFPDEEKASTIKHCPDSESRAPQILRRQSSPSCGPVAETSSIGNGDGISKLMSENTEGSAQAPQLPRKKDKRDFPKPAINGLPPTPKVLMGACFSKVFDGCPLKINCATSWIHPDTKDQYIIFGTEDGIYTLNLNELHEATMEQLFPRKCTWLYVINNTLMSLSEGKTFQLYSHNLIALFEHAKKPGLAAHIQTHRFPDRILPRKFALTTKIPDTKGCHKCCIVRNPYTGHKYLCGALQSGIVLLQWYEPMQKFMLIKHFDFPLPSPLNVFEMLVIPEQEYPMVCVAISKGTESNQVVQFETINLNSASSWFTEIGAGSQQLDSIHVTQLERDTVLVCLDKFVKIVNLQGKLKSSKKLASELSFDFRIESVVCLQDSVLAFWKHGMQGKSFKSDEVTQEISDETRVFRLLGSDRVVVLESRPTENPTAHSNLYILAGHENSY
# Method: as §1
# CDC7/DBF4 = target: T24, CDC7/DBF4 (Homo sapiens, UniProt O00311)
# T24 construct: purchased Reaction Biology Corp
# Method: as §1
# STK25/YSK1 = target: T25, STK25/YSK1 (Homo sapiens, UniProt O00506)
# T25 construct: purchased Reaction Biology Corp
# Method: as §1
# SYK = target: T26, SYK (Homo sapiens, UniProt P43405)
# T26 construct: purchased Reaction Biology Corp
# Method: as §1
# CK1a1 = target: T27, CK1a1 (Homo sapiens, UniProt P48729)
# T27 construct: purchased Reaction Biology Corp
# Method: as §1
# NEK5 = target: T28, NEK5 (Homo sapiens, UniProt Q6P3R8)
# T28 construct: purchased Reaction Biology Corp
# Method: as §1
# DCAMKL1 = target: T29, DCAMKL1 (Homo sapiens, UniProt O15075)
# T29 construct: purchased Reaction Biology Corp
# T29 sequence (O15075 whole entry): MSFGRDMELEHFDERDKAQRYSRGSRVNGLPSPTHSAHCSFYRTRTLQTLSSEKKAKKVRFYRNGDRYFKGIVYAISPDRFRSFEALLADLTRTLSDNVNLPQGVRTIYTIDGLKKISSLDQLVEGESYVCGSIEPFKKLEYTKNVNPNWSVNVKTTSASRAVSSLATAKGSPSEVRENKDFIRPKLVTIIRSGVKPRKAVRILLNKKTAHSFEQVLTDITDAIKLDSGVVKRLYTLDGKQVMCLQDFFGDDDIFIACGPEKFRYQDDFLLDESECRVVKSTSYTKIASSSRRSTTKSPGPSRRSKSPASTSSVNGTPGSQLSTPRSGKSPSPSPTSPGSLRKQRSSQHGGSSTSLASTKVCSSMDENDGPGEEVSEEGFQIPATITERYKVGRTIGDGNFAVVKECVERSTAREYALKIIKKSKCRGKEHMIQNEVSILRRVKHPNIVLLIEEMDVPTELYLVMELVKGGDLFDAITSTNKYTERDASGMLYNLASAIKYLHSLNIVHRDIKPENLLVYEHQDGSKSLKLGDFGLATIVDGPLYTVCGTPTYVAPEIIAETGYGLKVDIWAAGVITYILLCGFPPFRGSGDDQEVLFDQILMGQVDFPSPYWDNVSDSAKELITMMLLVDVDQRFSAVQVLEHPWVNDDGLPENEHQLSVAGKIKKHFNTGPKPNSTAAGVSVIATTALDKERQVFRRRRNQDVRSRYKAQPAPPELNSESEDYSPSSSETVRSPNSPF
# Method: as §1
# STK32C/YANK3 = target: T30, STK32C/YANK3 (Homo sapiens, UniProt Q86UX6)
# T30 construct: purchased Reaction Biology Corp
# Method: as §1
# p70S6K/RPS6KB1 = target: T31, p70S6K/RPS6KB1 (Homo sapiens, UniProt P23443)
# T31 construct: purchased Reaction Biology Corp
# Method: as §1
# CDK3/cyclin E2 = target: T32, CDK3/cyclin E2 (Homo sapiens, UniProt Q00526)
# T32 construct: purchased Reaction Biology Corp
# T32 sequence (Q00526 whole entry): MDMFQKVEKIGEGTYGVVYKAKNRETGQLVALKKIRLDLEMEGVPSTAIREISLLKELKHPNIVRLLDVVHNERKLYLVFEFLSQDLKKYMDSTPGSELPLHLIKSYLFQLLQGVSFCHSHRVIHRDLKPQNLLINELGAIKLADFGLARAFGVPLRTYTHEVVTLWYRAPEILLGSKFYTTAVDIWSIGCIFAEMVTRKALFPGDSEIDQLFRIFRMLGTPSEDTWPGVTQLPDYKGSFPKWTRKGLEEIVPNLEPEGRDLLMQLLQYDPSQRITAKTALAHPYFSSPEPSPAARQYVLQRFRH
# T32 sequence (O96020 whole entry partner): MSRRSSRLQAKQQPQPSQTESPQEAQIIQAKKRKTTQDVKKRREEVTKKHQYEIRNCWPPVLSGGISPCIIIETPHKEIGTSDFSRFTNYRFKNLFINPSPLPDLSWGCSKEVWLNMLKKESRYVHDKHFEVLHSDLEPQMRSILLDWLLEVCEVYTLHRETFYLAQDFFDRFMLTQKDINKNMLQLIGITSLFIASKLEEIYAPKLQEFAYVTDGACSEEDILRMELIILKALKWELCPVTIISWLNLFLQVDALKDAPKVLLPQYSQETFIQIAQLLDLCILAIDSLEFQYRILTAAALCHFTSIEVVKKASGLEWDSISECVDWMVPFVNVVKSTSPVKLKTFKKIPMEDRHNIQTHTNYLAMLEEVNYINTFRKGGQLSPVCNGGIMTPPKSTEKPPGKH
# Method: as §1
# MEKK2 = target: T33, MEKK2 (Homo sapiens, UniProt Q9Y2U5)
# T33 construct: purchased Reaction Biology Corp
# Method: as §1
# MAPKAPK5/PRAK = target: T34, MAPKAPK5/PRAK (Homo sapiens, UniProt Q8IW41)
# T34 construct: purchased Reaction Biology Corp
# Method: as §1
# MSSK1/STK23 = target: T35, MSSK1/STK23 (Homo sapiens, UniProt Q9UPE1)
# T35 construct: purchased Reaction Biology Corp
# Method: as §1
# LCK2/ICK = target: T36, LCK2/ICK (Homo sapiens, UniProt Q9UPZ9)
# T36 construct: purchased Reaction Biology Corp
# Method: as §1
# HIPK1 = target: T37, HIPK1 (Homo sapiens, UniProt Q86Z02)
# T37 construct: purchased Reaction Biology Corp
# Method: as §1
# PIM2 = target: T38, PIM2 (Homo sapiens, UniProt Q9P1W9)
# T38 construct: purchased Reaction Biology Corp
# Method: as §1
# EPHB3 = target: T39, EPHB3 (Homo sapiens, UniProt P54753)
# T39 construct: purchased Reaction Biology Corp
# Method: as §1
# Haspin = target: T40, Haspin (Homo sapiens, UniProt Q8TF76)
# T40 construct: purchased Reaction Biology Corp
# Method: as §1
# ERK7/MAPK15 = target: T41, ERK7/MAPK15 (Homo sapiens, UniProt Q8TD08)
# T41 construct: purchased Reaction Biology Corp
# T41 sequence (Q8TD08 whole entry): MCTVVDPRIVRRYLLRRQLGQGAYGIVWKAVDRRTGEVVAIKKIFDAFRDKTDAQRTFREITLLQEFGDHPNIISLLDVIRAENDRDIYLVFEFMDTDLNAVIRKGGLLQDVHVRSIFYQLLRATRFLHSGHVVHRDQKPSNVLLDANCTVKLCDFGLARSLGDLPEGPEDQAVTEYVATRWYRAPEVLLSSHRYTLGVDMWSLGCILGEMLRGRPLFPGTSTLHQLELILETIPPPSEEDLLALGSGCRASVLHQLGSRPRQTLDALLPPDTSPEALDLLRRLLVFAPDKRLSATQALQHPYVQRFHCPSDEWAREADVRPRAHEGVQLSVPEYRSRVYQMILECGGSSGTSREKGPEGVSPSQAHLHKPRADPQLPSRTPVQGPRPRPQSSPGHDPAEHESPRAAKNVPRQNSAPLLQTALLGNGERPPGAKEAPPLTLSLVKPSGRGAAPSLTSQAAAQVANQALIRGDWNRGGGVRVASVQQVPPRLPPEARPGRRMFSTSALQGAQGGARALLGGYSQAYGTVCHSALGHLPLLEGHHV
# Method: as §1
# EPHA6 = target: T42, EPHA6 (Homo sapiens, UniProt Q9UF33)
# T42 construct: purchased Reaction Biology Corp
# Method: as §1
compound,measurement,setting,value
Cc1ccc(NC(=O)c2ccc(CN3CCN(C)CC3)c(C(F)(F)F)c2)cc1-c1cnc2sc(N)nc2c1 [6r],inhibition at 1 µM,JAK1,74.9%
same,inhibition at 1 µM,PKCb1,10.5%
same,inhibition at 1 µM,EPHA2,77.4%
same,inhibition at 1 µM,KDR/VEGFR2,77.8%
same,inhibition at 1 µM,c-Src,68.7%
same,inhibition at 1 µM,MYO3b,0%
same,inhibition at 1 µM,CAMK4,3.2%
same,inhibition at 1 µM,CLK3,0%
same,inhibition at 1 µM,CAMK2g,0%
same,inhibition at 1 µM,STK38/NDR1,17.1%
same,inhibition at 1 µM,NEK7,5.4%
same,inhibition at 1 µM,CAMK1b,5.4%
same,inhibition at 1 µM,ALK6/BMPR1B,15%
same,inhibition at 1 µM,RSK1,23.4%
same,inhibition at 1 µM,GRK6,0%
same,inhibition at 1 µM,CAMK1a,8%
same,inhibition at 1 µM,TYRO3/SKY,14.6%
same,inhibition at 1 µM,CDK2/CYCLIN E,0%
same,inhibition at 1 µM,ERK5/MAPK7,6.5%
same,inhibition at 1 µM,PDK1/PDPK1,7.2%
same,inhibition at 1 µM,DMPK2,8%
same,inhibition at 1 µM,ZIPK/DAPK3,6.7%
same,inhibition at 1 µM,KHS/MAP4K5,0%
same,inhibition at 1 µM,CDC7/DBF4,0.8%
same,inhibition at 1 µM,STK25/YSK1,9.3%
same,inhibition at 1 µM,SYK,3.2%
same,inhibition at 1 µM,CK1a1,13.7%
same,inhibition at 1 µM,NEK5,0%
same,inhibition at 1 µM,DCAMKL1,1.5%
same,inhibition at 1 µM,STK32C/YANK3,0.6%
same,inhibition at 1 µM,p70S6K/RPS6KB1,8.4%
same,inhibition at 1 µM,CDK3/cyclin E2,12.4%
same,inhibition at 1 µM,MEKK2,11.1%
same,inhibition at 1 µM,MAPKAPK5/PRAK,0%
same,inhibition at 1 µM,MSSK1/STK23,30.6%
same,inhibition at 1 µM,LCK2/ICK,60.8%
same,inhibition at 1 µM,HIPK1,5.2%
same,inhibition at 1 µM,PIM2,0.8%
same,inhibition at 1 µM,EPHB3,42.5%
same,inhibition at 1 µM,Haspin,12.1%
same,inhibition at 1 µM,ERK7/MAPK15,4.2%
same,inhibition at 1 µM,EPHA6,39.9%
